In the supplement of paper PMC10307832:

Key:
Test in all cases: relative viability (nuclei count vs DMSO), 5 days (fraction); higher = more cells survive
Sulindac + OSI-027 = compound: CC1=C(CC(=O)O)c2cc(F)ccc2/C1=C\c1ccc([S+](C)[O-])cc1 [Sulindac] + COc1cccc2cc(-c3nc([C@H]4CC[C@H](C(=O)O)CC4)n4ncnc(N)c34)[nH]c12 [OSI-027] (partner 0.5 µM)
How it was run: (§1)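 For relative viability, nuclei counts in treated wells were divided by those in vehicle wells. Lung cancer cell lines had been pin-tool dosed in 1536-well plates the day after seeding and cultured for 5 days, then fixed and stained in one step (final 0.05% Triton X-100, 1% formaldehyde, 1 ug/ml Hoechst) and imaged at 4×. Doses were one drug alone or a fixed anchor-drug dose plus five library-drug doses (not always all listed) in √10 steps, and values are duplicate-plate medians.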

Sulindac + Decitabine = compound: CC1=C(CC(=O)O)c2cc(F)ccc2/C1=C\c1ccc([S+](C)[O-])cc1 [Sulindac] + Nc1ncn([C@H]2C[C@H](O)[C@@H](CO)O2)c(=O)n1 [Decitabine] (partner 2 µM)
How it was run: as §1

[1] = compound: CN[C@@H]1C[C@H]2O[C@@](C)([C@@H]1OC)n1c3ccccc3c3c4c(c5c6ccccc6n2c5c31)C(=O)NC4 [Staurosporine] + CC1(C)CCC(c2ccc(Cl)cc2)=C(CN2CCN(c3ccc(C(=O)NS(=O)(=O)c4ccc(N[C@H](CCN5CCOCC5)CSc5ccccc5)c(S(=O)(=O)C(F)(F)F)c4)cc3)CC2)C1 [Navitoclax] (partner 0.5 µM)
How it was run: as §1

Staurosporine + AZD7762 = compound: CN[C@@H]1C[C@H]2O[C@@](C)([C@@H]1OC)n1c3ccccc3c3c4c(c5c6ccccc6n2c5c31)C(=O)NC4 [Staurosporine] + NC(=O)Nc1cc(-c2cccc(F)c2)sc1C(=O)N[C@H]1CCCNC1 [AZD7762] (partner 0.2 µM)
How it was run: as §1

Cell Line	relative viability (Sulindac + OSI-027; first compound 0.08 µM)	relative viability (Sulindac + OSI-027; first compound 0.253 µM)	relative viability (Sulindac + OSI-027; first compound 0.8 µM)	relative viability (Sulindac + OSI-027; first compound 2.53 µM)	relative viability (Sulindac + OSI-027; first compound 8 µM)	relative viability (Sulindac + Decitabine; first compound 0.08 µM)	relative viability (Sulindac + Decitabine; first compound 0.253 µM)	relative viability (Sulindac + Decitabine; first compound 0.8 µM)	relative viability (Sulindac + Decitabine; first compound 2.53 µM)	relative viability (Sulindac + Decitabine; first compound 8 µM)	relative viability ([1]; first compound 0.005 µM)	relative viability ([1]; first compound 0.01581 µM)	relative viability ([1]; first compound 0.05 µM)	relative viability ([1]; first compound 0.1581 µM)	relative viability ([1]; first compound 0.5 µM)	relative viability (Staurosporine + AZD7762; first compound 0.005 µM)	relative viability (Staurosporine + AZD7762; first compound 0.01581 µM)	relative viability (Staurosporine + AZD7762; first compound 0.05 µM)	relative viability (Staurosporine + AZD7762; first compound 0.1581 µM)	relative viability (Staurosporine + AZD7762; first compound 0.5 µM)
LCLC-97TM1	0.629	0.626	0.294	0.426	0.589	0.208	0.263	0.225	0.247	0.232	0.732	0.283	0.286	0.31	0.223	0.225	0.121	0.169	0.176	0.141
NCI-H1299	–	–	–	–	–	–	–	–	–	–	1.06	0.739	0.459	0.239	0.199	–	–	–	–	–
NCI-H322M	0.6	0.534	0.442	0.557	0.602	0.599	0.614	0.657	0.631	0.699	1.36	1.15	0.771	0.586	0.462	0.552	0.456	0.527	0.393	0.425
NCI-H1395	0.668	0.72	0.675	0.58	0.77	0.726	0.689	0.664	0.659	0.832	1.05	0.495	0.458	0.327	0.301	0.38	0.305	0.34	0.303	0.302
NCI-H2023	0.501	0.509	0.399	0.387	0.389	0.233	0.234	0.203	0.206	0.254	0.715	0.598	0.257	0.159	0.0924	–	–	–	–	–
Calu-6	–	–	–	–	–	–	–	–	–	–	0.656	0.321	0.233	0.0847	0.0708	–	–	–	–	–
NCI-H1650	0.452	0.567	–	0.45	0.734	0.4	0.495	0.421	0.378	0.473	0.63	0.493	0.29	0.192	0.116	–	–	–	–	–
NCI-H1648	0.25	0.242	0.298	0.268	0.265	0.641	0.558	–	0.462	0.452	–	–	–	–	–	0.611	0.409	0.373	0.412	0.388
COR-L23	1.09	0.777	0.609	0.743	0.94	0.436	0.446	0.425	0.421	0.526	0.511	0.3	0.17	0.0578	0.0582	–	–	–	–	–
SW 1573	0.722	0.676	–	0.699	0.578	0.688	0.538	0.443	0.368	0.641	0.898	0.297	0.193	0.0915	0.0731	–	–	–	–	–
NCI-H661	0.735	0.838	0.622	0.711	0.797	0.648	0.544	0.523	0.574	0.609	–	–	–	–	–	–	–	–	–	–
NCI-H2009	0.732	0.77	0.582	0.626	0.731	0.455	0.397	0.371	0.362	0.359	0.42	0.38	0.189	0.19	0.0825	–	–	–	–	–
NCI-H1623	0.401	0.427	0.415	0.409	0.421	–	–	–	–	–	–	–	–	–	–	–	–	–	–	–
CAL-12T	0.534	0.847	0.51	0.61	0.696	–	–	–	–	–	0.285	0.314	0.152	0.13	0.0943	0.416	0.338	0.409	0.257	0.167
NCI-H522	0.788	0.777	0.666	0.62	0.645	0.643	0.718	0.652	0.667	0.687	–	–	–	–	–	0.953	0.866	0.715	0.639	0.404
ABC-1	0.503	0.447	0.361	0.466	0.489	1.04	1.09	1.02	0.821	1.16	–	–	–	–	–	0.3	0.496	0.393	0.642	0.0806
SW 900	–	0.566	–	0.42	0.555	0.449	0.432	–	–	0.489	–	–	–	–	–	0.413	0.337	0.31	0.157	0.151
NCI-H650	0.506	0.523	0.523	0.545	0.566	0.33	0.325	0.341	0.284	0.339	–	–	–	–	–	0.432	0.304	0.273	0.227	0.306
SK-MES-1	0.781	0.823	0.55	0.609	0.631	0.378	0.418	0.304	0.436	0.386	0.925	0.329	0.28	0.173	0.134	–	–	–	–	–
IA-LM	–	–	–	–	–	–	–	–	–	–	0.242	–	0.257	0.0433	0.0163	–	–	–	–	–
A549	–	–	–	–	–	0.262	0.247	–	0.29	0.232	0.616	0.385	0.123	0.0294	0.0297	–	–	–	–	–
LCLC-103H	0.558	0.499	0.388	0.496	0.555	0.748	0.787	0.738	0.661	0.729	–	–	–	–	–	0.827	0.41	0.334	0.231	0.194
NCI-H358	0.941	0.891	0.657	0.727	0.891	0.235	0.2	0.196	0.186	0.239	–	–	–	–	–	0.339	0.378	0.253	0.195	0.172
NCI-H2228	0.794	0.687	0.533	0.502	0.56	–	–	–	–	–	0.6	0.399	0.165	0.127	0.0586	–	–	–	–	–
